Source: US8410309B2, “Phenoxy carboxylic acid compounds and compositions for delivering active agents” (Emisphere Technologies, Inc., priority 1999, dated 2013)
“And” between values parts separate entries of the source, which are not always exact repeats. Equal entries are not always repeated. Where two headings read alike, the source gives them in different places.

Tests used:
[1] = Heparin oral/intracolonic delivery, clotting time by activated partial thromboplastin time (APTT); format: in vivo, Sprague-Dawley rats; conditions: rats, baseline about 20 seconds
Procedure, shortened: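 Heparin sodium with a delivery agent in 25% aqueous propylene glycol, pH about 7, was dosed by oral gavage or intracolonically. Citrated cardiac blood was taken under ketamine (88 mg/kg) at 0.25, 0.5, 1.0 and 1.5 h after dosing. Absorption was read as a rise in APTT clotting time.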

[2] = rat, in vivo, po, 150 mg/kg
[3] = Insulin pulmonary delivery, serum insulin by ELISA, ratio to insulin-alone control; format: in vivo, Sprague-Dawley rats; conditions: Table 9 pulmonary delivery, rats; volume 1 ml/kg, delivery agent compound 3 mg/kg, insulin 100 mg/kg (so in the source)
Description: Dosing compositions of delivery agent compound and human insulin in water were prepared. Typically, to 1.5 mg of delivery agent compound was added deionized water to bring the volume to 1.0 ml, and the solution was vortexed. […] The pH was adjusted to between about 7.0 to 8.5 with NaOH or HCl. […] The final delivery agent compound dose, insulin dose and volume dose amounts are listed below in Table 9.
The typical dosing and sampling protocols were as follows. […] A control group of five animals was dosed insulin alone. A tracheal instillator for rodents, equipped with light (available from Penn Century, Inc., Pittsburgh, Pa.) was filled with dosing solution and inserted down the throat until the needle went into the trachea (confirmed visually). The dosing solution was administered by pressing the plunger.
Blood samples from each animal were collected serially from the tail artery, typically at 5, 15, 30, 60 and 120 minutes after dosing. […] The ratio of the area under the curve (AUC) for the test group versus that of the control group is reported below. The ratio of the maximum serum insulin concentration (Cmax) for the test group versus that of the control group is also reported below.

[4] = Low molecular weight heparin (LMWH) oral/intracolonic delivery, plasma LMWH by anti-Factor Xa assay; format: in vivo, Sprague-Dawley rats; conditions: rats
Procedure, shortened: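 LMWH (parnaparin) plus delivery agent in 25% aqueous propylene glycol, pH about 7, given orally or intracolonically. Citrated blood drawn by cardiac puncture under ketamine (88 mg/kg), typically at 0.5–4.0 h post-dose. Plasma LMWH measured by chromogenic anti-Factor Xa assay; peak of mean plasma concentrations reported.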

[5] = Interferon oral delivery, serum IFN by immunoassay; format: in vivo, Sprague-Dawley rats; conditions: rats, delivery agent compound 200 mg/kg, IFN 1 mg/kg, 1 ml/kg
Description: Dosing solutions of delivery agent compound and human interferon (IFN) were prepared in deionized water. […] This mixture was vortexed and placed in a sonicator (about 37° C.). The pH was adjusted to about 7.0 to 8.5 with aqueous NaOH. The mixture was vortexed to produce a uniform suspension or solution, also using sonication and heat if necessary.
(§1) The typical dosing and sampling protocols were as follows.
Serum IFN concentrations were quantified using Cytoscreen Immunoassay Kit for human IFN-alpha (catalog # KHC4012 from Biosource International, Camarillo, Calif.). Previous studies indicated baseline values of about zero.

[6] = Insulin oral delivery, serum human insulin by ELISA; conditions: rats
[7] = Daptomycin oral delivery, plasma daptomycin by HPLC; format: in vivo, Sprague-Dawley rats; conditions: rats, delivery agent compound dose 200 mg/kg, daptomycin dose 50 mg/kg, volume dose 1 mL/kg
Description: Dosing solutions containing a delivery agent compound and daptomycin (Cubist Pharmaceuticals, Cambridge, Mass.) were prepared in 0.9% normal saline. […] This mixture was vortexed and placed in a sonicator (about 37° C.). The pH was adjusted to about 7.0-7.5 with aqueous HCl or NaOH. […] The mixture was vortexed to produce a uniform solution, also using sonication if necessary. The delivery agent compound solution was mixed with daptomycin from a stock solution (200 mg daptomycin/mL in 0.9% normal saline and the pH adjusted, if necessary, to between 6.0-7.0 with NaOH or HCl). The stock solution was stored frozen (−20° C.) wrapped in foil, then thawed and warmed gradually to about 25° C. before using. The delivery agent-daptomycin mixture was vortexed at low speed to produce a uniform solution. The pH was adjusted to about 7.0-7.5 with aqueous NaOH. The solution was then diluted with 0.9% normal saline to the desired volume (usually 2.0 ml) and concentration and stored wrapped in foil before use.
as §1
Heparinized rat blood samples were collected via the ventral tail artery, typically at 0.25, 0.5, 0.75, 1.0, 2.0, and 4.0 hours after dosing, and stored on ice. Blood samples were then spun (centrifuged) at 11,500 rpm for 4 minutes at 4° C. to obtain the plasma (supernatant), which was stored at −70° C. The plasma daptomycin concentrations were measured by isocratic reversed phase HPLC, keeping samples at 4° C. during analysis. Blank plasma studies show baseline values of zero.
Daptomycin blood concentrations results from the individual animals in each dosage group were averaged for each time point.

[8] = Salmon calcitonin (sCT) oral delivery, serum sCT by EIA; conditions: rats
[9] = Parathyroid hormone (PTH 1-34) oral/intracolonic delivery, serum PTH by radioimmunoassay; conditions: rats, oral (PO); delivery agent compound dose 100 mg/kg, PTH dose 200 μg/kg, volume dose 1 ml/kg
Description: Oral gavage (PO) and/or intracolonic (IC) dosing solutions of delivery agent compound and human parathyroid hormone residues 1-34 (PTH) in deionized water were prepared. A solution of the compound was made either with the sodium salt of the delivery agent compound or by converting the free acid to its sodium salt.
The typical dosing and sampling protocols were as follows. Male Sprague-Dawley rats weighing between 200-250 g were fasted for 24 hours and administered ketamine (44 mg/kg) and chlorpromazine (1.5 mg/kg) 15 minutes prior to dosing and again as needed to maintain anesthesia. A dosing group of five animals was administered one of the dosing solutions. For oral gavage (PO), an 11 cm Rusch 8 French catheter was adapted to a 1 ml syringe with a pipette tip. The syringe was filled with dosing solution by drawing the solution through the catheter, which was then wiped dry. The catheter was placed down the esophagus leaving 1 cm of tubing past the incisors. The dosing solution was administered by pressing the syringe plunger. For intracolonic (IC) dosing, a 7.5 cm Rusch catheter tube (French 8 or 6) was adapted to a syringe with an Eppendorf pipette tip. The syringe was filled with the dosing solution by drawing the solution through the catheter tube. The catheter tube was wiped dry. K-Y jelly was applied to the tip, avoiding contact with the eye of the tube, and the tube was inserted into the colon through the anus until the tube was no longer visible. The dosing solution was injected by pressing the syringe plunger, and the tube was removed.
Previous studies indicated baseline values of about zero. Results from the animals in each group were averaged for each time point.

[10] = Recombinant human growth hormone (rhGH) oral delivery, serum rhGH by immunoassay; conditions: oral gavage, rats; delivery agent compound 200 mg/kg, rhGH 3 mg/kg, volume dose 1 ml
Description: Oral gavage (PO) dosing solutions of delivery agent compound and rhGH in phosphate buffer were prepared by mixing. A solution of the delivery agent compound was made either with the sodium salt of the delivery agent compound or by converting the free acid to its sodium salt.
The typical dosing and sampling protocols were as follows. Male Sprague-Dawley rats weighing 200-250 g were fasted for 24 hours and administered ketamine (44 mg/kg) and chlorpromazine (1.5 mg/kg) 15 minutes prior to dosing and again as needed to maintain anesthesia. A dosing group of five animals was administered one of the dosing solutions. An 11 cm Rusch 8 French catheter was adapted to a 1 ml syringe with a pipette tip. The syringe was filled with dosing solution by drawing the solution through the catheter, which was then wiped dry. The catheter was placed down the esophagus leaving 1 cm of tubing past the incisors. The dosing solution was administered by pressing the syringe plunger.
Blood samples were collected serially from the tail artery typically at time=15, 30, 45, 60 and 90 minutes. The five samples from each time period were pooled (except for those samples for which standard deviation (SD) and standard error (SE) are reported). Serum rHGH concentrations were quantified by an rHGH immunoassay test kit (Kit # K1F4015 from Genzyme Corporation Inc., Cambridge, Mass.).

[11] = IC (intracolonic), delivery agent compound 50 mg/kg, heparin 25 mg/kg, volume dose 1 ml
[12] = IC, delivery agent compound 50 mg/kg, LMWH 750 IU/kg, 1 ml/kg, 50 mg/kg
[13] = delivery agent compound 100 mg/kg, insulin 3 mg/kg, 0.5 ml/kg

Structure (SMILES)	Mean Peak APTT ± SD [1, 11]	Mean Peak Plasma LMWH Concentration ± SD [4, 12]	Mean Peak Serum [INS] ± SD [6, 13] [μU/ml]	Mean plasma Cmax [daptomycin] ± SD [7] [ng/mL]	Mean Peak Serum [PTH] (pg/mL) ± SD [9] [pg/mL]	other results
O=C(O)COc1ccccc1O [Compound 3]	16.046 ± 0.481 s and 16.984 ± 1.45 s					Mean Peak Serum sCT (pg/ml ± SD) (SE) [2]: 0 ± 81 pg/mL
O=C(O)CCCCCCCOc1ccccc1O [Compound 7, 8-(2-hydroxyphenoxy)octanoic acid]	130.5 ± 42.6 s and 92 ± 40.3 s and 99.4 ± 25.5 s					Cmax (serum insulin) [3]: 130.9724 μU/ml; melting point: 60 to 64 °C
CC(=O)c1ccccc1OCCCCCCCC(=O)O [Compound 12]		1.7 ± 0.308 IU/ml and 1.74 ± 0.304 IU/ml and 2.012 ± 0.124 IU/ml and 1.498 ± 0.462 IU/ml	205.4 ± 333.4	16110 ± 17580	276 ± 252	Mean Peak APTT ± SD ([1]; PO (oral gavage), delivery agent compound 300 mg/kg, heparin 100 mg/kg, volume dose 3 ml): 201.4 ± 45.7 s; Mean Peak Plasma LMWH Concentration ± SD ([4]; IC, delivery agent compound 10 mg/kg, LMWH 750 IU/kg, 1 ml/kg): 0.2 ± 0.077 IU/ml; Mean Peak Plasma LMWH Concentration ± SD ([4]; IC, delivery agent compound 50 mg/kg, LMWH 751 IU/kg, 1 ml/kg): 1.5 ± 0.23 IU/ml; Mean Peak Plasma LMWH Concentration ± SD ([4]; PO, delivery agent compound 300 mg/kg, LMWH 3000 IU/kg, 3 ml/kg): 0.137 ± 0.18 IU/ml; Mean Peak Serum [IFN] ± SD [5]: 1.6362 ± 1.68 ng/mL; Mean Peak Serum sCT (pg/ml ± SD) (SE) ([8]; delivery agent compound dose 50 mg/kg, sCT dose 100 μg/kg, dose volume 0.5 (ml)): 445 ± 221 pg/mL; Mean Peak Serum sCT (pg/ml ± SD) (SE) ([8]; delivery agent compound dose 50 mg/kg, sCT dose 100 μg/kg, dose volume 1 (ml)): 316 ± 476 pg/mL
NC(=O)c1ccccc1OCCCCCCCC(=O)O [Compound 30, 8-(2-carboxamidophenoxy)caprylic acid]	50.9 ± 20.5 s	0.162 ± 0.094 IU/ml and 0.288 ± 0.152 IU/ml		3060 ± 780	78 ± 71	Mean Peak Serum [INS] ± SD ([6]; delivery agent compound 200 mg/kg, insulin 0.5 mg/kg, 1 ml/kg): 21.88 ± 13.4 μU/ml
CNC(=O)c1ccccc1OCCCCCCCC(=O)O [Compound 31]	47 ± 23.1 s	0.47 ± 0.287 IU/ml and 0.47 ± 0.332 IU/ml	21.26 ± 6.22		460 ± 194	
CCNC(=O)c1ccccc1OCCCCCCCC(=O)O [Compound 33, 8-(2-(N-ethylbenzamide)oxy)octanoic acid]			58.13 ± 52.86		837 ± 347	Mean Peak Serum sCT (pg/ml ± SD) (SE) ([8]; delivery agent compound dose 150 mg/kg, sCT dose 30 μg/kg, dose volume 1 (ml)): 96 ± 209 pg/mL; Mean Peak Serum [rhGH] [10]: 10.1 ng/mL and 6.9 ng/mL
